Experimental data reported in patent US12227500B2, “Substituted pyrrolo[2,3-b]pyridines for suppressing toxic endoplasmic reticulum stress” (THE TRUSTEES OF COLUMBIA UNIVERSITY IN THE CITY OF NEW YORK, priority 2018, dated 2025).

Tests used:
[1] = system: panel of 371 human kinases; test: Radiolabeled ATP kinase assay, panel of 371 kinases (Table S6); format: biochemical; settings: 0.1 μM, 10 μM ATP
From the text: ; FIG. 38C). […]. Further targeted analyses, such as genetic knock-down or knock-out, may be warranted to parse the role of these additional kinases in our model of neurodegeneration.

phospho-cjun = test: Phospho-cjun in olfactory bulbs after treatment in vivo (western blot); design: species or system mouse; settings: 10 mg/kg oral gavage
Experimental: Compounds at 10 mg/kg were delivered intraperitoneally (IP), orally, or sub-cutaneously (SC). Animals were sacrificed 1 h after treatment. Their olfactory bulbs were dissected and lysed for western blot analysis. Phospho-cjun expression was normalized to the housekeeping protein GAPDH.
We therefore selected phospho-cjun as a marker of target engagement for further in vivo studies. C-jun is highly expressed throughout the murine central nervous system, especially in the olfactory bulbs. […] Animals were then sacrificed after 1 h, and their olfactory bulbs were sub-dissected and lysed for further western blot analysis. Samples were probed with an antibody specific to phosphorylated c-jun (at serine 63; cell signaling) and normalized to the housekeeping gene GAPDH.

[2] = system: targets of cyclin-dependent kinases and mitogen activated kinases; test: Target engagement in CNS, per os 7 days (phosphoprotein blot of brain); format: in vivo, mouse; settings: 5 or 10 mg/kg
Experimental: To explore the target engagement in CNS for compound 12k, compounds 1 and 12k were administered continuously per os to wild-type mice (n=3 per treatment). […] Fresh brain samples were harvested after 7 days of treatment. Reduced brain samples were separated by SDS-PAGE and probed with an antibody that recognizes phosphoproteins that have been phosphorylated at motifs corresponding to the targets of cyclin-dependent kinases and mitogen activated kinases.

[3] = Safety of long-term administration in drinking water; format: in vivo; settings: 10 mg/kg, 60 days from P30
From the text: […]. Treatment began at P30 and continued for 60 days.

[4] = system: human ALS stem cell-derived motor neurons; test: Rescue of CPA toxicity, 6-point dose-response assay (FIG. 2B); format: cell-based
[5] = Spectrophotometric solubility assay of vehicle formulations (540 nM); format: physicochemical
Experimental: These mixtures were then read on a spectrophotometer at […] to assess optical density, a measure of the transparency of the mixture and an indicator of the formation of precipitates. […] At higher concentrations, these precipitates were visible by eye.
Compounds diluted in different vehicle formulations were added to clear cell culture media at ratios consistent with our in vivo dosing scheme.

[6] = Pharmacokinetics of compound 1 in mice (background); settings: mouse, in vivo
HGK/MAP4K4 = HGK/MAP4K4 (Homo sapiens, UniProt O95819); settings: cited from earlier work
[7] = system: human stem cell-derived motor neurons derived from a healthy patient; test: CPA survival assay, wild-type human stem cell-derived motor neurons; settings: CPA 33 μM; at 1.2 μM (PF-6260933), 2.4 μM (GNE-495), 0.6 μM (URMC-099)

Sequence of HGK/MAP4K4 (O95819 whole entry, species assumed): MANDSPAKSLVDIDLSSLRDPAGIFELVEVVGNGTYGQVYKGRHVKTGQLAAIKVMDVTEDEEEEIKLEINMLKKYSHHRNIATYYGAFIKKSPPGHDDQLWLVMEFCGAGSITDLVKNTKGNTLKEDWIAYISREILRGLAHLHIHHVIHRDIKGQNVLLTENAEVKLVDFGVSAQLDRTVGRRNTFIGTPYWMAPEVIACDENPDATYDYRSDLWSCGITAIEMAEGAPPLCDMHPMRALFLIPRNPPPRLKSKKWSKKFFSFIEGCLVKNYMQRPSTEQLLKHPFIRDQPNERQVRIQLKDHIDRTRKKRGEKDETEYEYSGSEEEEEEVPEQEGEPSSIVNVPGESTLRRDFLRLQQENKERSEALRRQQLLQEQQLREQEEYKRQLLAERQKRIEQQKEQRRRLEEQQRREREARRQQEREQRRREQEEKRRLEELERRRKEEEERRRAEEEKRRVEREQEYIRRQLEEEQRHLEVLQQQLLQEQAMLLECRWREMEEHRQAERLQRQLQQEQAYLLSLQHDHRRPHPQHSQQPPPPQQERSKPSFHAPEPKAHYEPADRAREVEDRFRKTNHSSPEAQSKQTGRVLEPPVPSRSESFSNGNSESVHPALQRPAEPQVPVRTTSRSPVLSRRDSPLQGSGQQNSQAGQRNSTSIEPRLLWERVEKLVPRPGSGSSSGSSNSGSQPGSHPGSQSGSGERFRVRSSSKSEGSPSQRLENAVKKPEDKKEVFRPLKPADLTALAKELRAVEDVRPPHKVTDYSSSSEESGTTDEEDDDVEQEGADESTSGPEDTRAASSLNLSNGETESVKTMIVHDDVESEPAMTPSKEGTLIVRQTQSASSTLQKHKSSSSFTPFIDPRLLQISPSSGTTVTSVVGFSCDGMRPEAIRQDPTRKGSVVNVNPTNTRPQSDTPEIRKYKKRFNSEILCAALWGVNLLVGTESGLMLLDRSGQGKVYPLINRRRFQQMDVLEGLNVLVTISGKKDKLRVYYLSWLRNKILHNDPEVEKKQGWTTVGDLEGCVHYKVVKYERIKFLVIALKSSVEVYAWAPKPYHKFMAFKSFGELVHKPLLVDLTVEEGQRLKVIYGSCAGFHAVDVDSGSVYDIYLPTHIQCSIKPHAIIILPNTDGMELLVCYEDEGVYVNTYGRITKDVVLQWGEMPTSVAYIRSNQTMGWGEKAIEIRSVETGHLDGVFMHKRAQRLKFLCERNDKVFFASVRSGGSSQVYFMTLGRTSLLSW

Question: What does the source list for OCCN1CCN(Cc2ccc(-c3cnc4[nH]cc(-c5cccc(Cl)c5)c4c3)cc2)CC1 [Compound 12k, 2-(4-(4-(3-(3-Chlorophenyl)-1H-pyrrolo[2,3-b]pyridin-5-yl)benzyl)piperazin-1-yl)ethan-1-ol]?
Answer: % Enzyme Activity (relative to DMSO controls) ([1]; LYN B): 89.48%; % Enzyme Activity (relative to DMSO controls) ([1]; PKCb2): 89.45%; % Enzyme Activity (relative to DMSO controls) ([1]; PKG1b): 101.46%; oral bioavailability (from reduction of cjun phosphorylation after oral gavage) (phospho-cjun): orally bioavailable; intensity of a high molecular weight phosphoprotein band in brain vs vehicle or compound 1 [2]: consistently decreased the intensity of a high molecular weight band; body mass vs vehicle-treated controls [3]: mild increase in body mass; survival, hindlimb strength, gross pathology [3]: No differences in survival, hindlimb strength, or gross pathology

Question: Which cellular potency [4] does the source give for CN1CCN(Cc2ccc(-c3cnc4[nH]cc(-c5ccc6[nH]ccc6c5)c4c3)cc2)CC1 [Compound 1, 3-(1H-Indol-5-yl)-5-(4-((4-methylpiperazin-1-yl)methyl)phenyl)-1H-pyrrolo[2,3-b]pyridine, reference compound] here?
Answer: The cellular potency was > 100 nM.

Question: What about the “concentrations showing protective effects” value ([4]; 33 μM CPA) of the same compound?
Answer: Its value is ≥ 100 nM.

Question: And the “concentration that completely reversed CPA-induced neurodegeneration” value ([4]; 33 μM CPA, 0.01 μM-3 μM)?
Answer: The value was 1 µM.

Question: What about the “solubility after adding 2-hydroxypropyl-β-cyclodextrin to the vehicle” value ([5]; 11% 2-hydroxypropyl-β-cyclodextrin) of the same compound?
Answer: Its value is “fully solubilize”.

Question: What about the “solubility in cell culture media” value ([5]; formulation 55% saline, 40% PEG-400, 5% DMSO) of the same compound?
Answer: The value was “highly insoluble”.

Question: What about the half-life [6] of the same compound?
Answer: Its half-life is 2 to 3 h.

Question: And the “HGK enzyme activity remaining” value (HGK/MAP4K4; 1 μM treatment)?
Answer: The value was 0.54%.

Question: And the “inhibition of HGK activity in a cell-free assay” value (HGK/MAP4K4; 1 μM, Goodfellow et al. 2013)?
Answer: Its value is > 99%.

Question: And the “motor neuron survival restored, % of vehicle controls (maximum)” value [7]?
Answer: The value was 90%.
